How the values were obtained:
Test in all cases: relative viability (nuclei count vs DMSO), 5 days (fraction); higher = more cells survive
[1] = compound: CC1=C(C(=NN1)C)CC2=C(C3=C(S2)N(C(=O)N(C3=O)C)CC(C)C)C(=O)N4C[C@@H](CO4)O + CS(=O)(=O)CCNCc1ccc(-c2ccc3ncnc(Nc4ccc(OCc5cccc(F)c5)c(Cl)c4)c3c2)o1 [Lapatinib] (partner 2 µM)
In short: (§1)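 Relative viability is defined as nuclei in treated wells over nuclei in vehicle wells. Duplicate plates were run and medians reported. Lung cancer cell lines in 1536-well plates were dosed by pin tool one day after seeding, with one drug or with a fixed anchor-drug dose plus five library-drug doses (not always all listed) in √10 steps, and nuclei were counted after 5 days.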

[2] = compound: Cc1ccccc1C(C(=O)NC1CCCCC1)N(C(=O)Cn1ccnc1C)c1cccc(F)c1 [IDH-C35] + CC(=O)c1c(C)c2cnc(Nc3ccc(N4CCNCC4)cn3)nc2n(C2CCCC2)c1=O [Palbociclib] (partner 0.5 µM)
In short: as §1

[3] = compound: Cc1ccccc1C(C(=O)NC1CCCCC1)N(C(=O)Cn1ccnc1C)c1cccc(F)c1 [IDH-C35] + CCNC(=O)c1noc(-c2cc(C(C)C)c(O)cc2O)c1-c1ccc(CN2CCOCC2)cc1 [Luminespib] (partner 0.01 µM)
In short: as §1

[4] = compound: Cc1ccccc1C(C(=O)NC1CCCCC1)N(C(=O)Cn1ccnc1C)c1cccc(F)c1 [IDH-C35] + N=C(N)NC(=N)NCCc1ccccc1 [Phenformin] (partner 250 µM)
In short: as §1

| Cell Line | relative viability ([1]; first compound 0.0025 µM) | relative viability ([1]; first compound 0.007906 µM) | relative viability ([1]; first compound 0.025 µM) | relative viability ([1]; first compound 0.07906 µM) | relative viability ([1]; first compound 0.25 µM) | relative viability ([2]; first compound 0.08 µM) | relative viability ([2]; first compound 0.253 µM) | relative viability ([2]; first compound 0.8 µM) | relative viability ([2]; first compound 2.53 µM) | relative viability ([2]; first compound 8 µM) | relative viability ([3]; first compound 0.08 µM) | relative viability ([3]; first compound 0.253 µM) | relative viability ([3]; first compound 0.8 µM) | relative viability ([3]; first compound 2.53 µM) | relative viability ([3]; first compound 8 µM) | relative viability ([4]; first compound 0.08 µM) | relative viability ([4]; first compound 0.253 µM) | relative viability ([4]; first compound 0.8 µM) | relative viability ([4]; first compound 2.53 µM) | relative viability ([4]; first compound 8 µM) |
| --- | --- | --- | --- | --- | --- | --- | --- | --- | --- | --- | --- | --- | --- | --- | --- | --- | --- | --- | --- | --- |
| NCI-H1355 | 1.08 | 1.11 | 0.918 | 0.945 | 0.943 | 0.438 | 0.4 | 0.393 | 0.427 | 0.388 | 0.703 | 0.72 | 0.693 | 0.722 | 0.72 | 0.52 | 0.438 | 0.424 | 0.466 | 0.395 |
| H3255 | 0.24 | 0.244 | 0.25 | 0.241 | 0.223 | 0.315 | 0.281 | 0.337 | 0.305 | 0.326 | 0.845 | 0.998 | 0.734 | 1.03 | 0.882 | 0.381 | 0.38 | 0.365 | 0.363 | 0.344 |
| NCI-H1993 | 0.856 | 0.809 | 0.744 | 0.745 | 0.947 | 0.649 | 0.504 | 0.654 | 0.617 | 0.666 | 0.793 | 0.882 | 0.914 | 0.836 | 0.936 | 0.56 | 0.508 | 0.476 | 0.555 | 0.524 |
| NCI-H1734 | 1.19 | 1.11 | 1.02 | 0.986 | 0.812 | 0.359 | 0.33 | 0.352 | 0.325 | 0.305 | 0.193 | 0.215 | 0.214 | 0.19 | 0.191 | 0.402 | 0.449 | 0.4 | 0.359 | 0.346 |
| HOP-62 | 1.05 | 0.946 | 1.05 | 0.952 | 1.08 | 0.377 | 0.435 | 0.426 | 0.419 | 0.394 | 0.944 | 0.849 | 0.822 | 0.923 | 0.927 | 0.718 | 0.649 | 0.634 | 0.618 | 0.677 |
| LOU-NH91 | 0.74 | 0.755 | 0.815 | 0.781 | 0.813 | 0.553 | 0.558 | 0.54 | 0.551 | 0.519 | 0.331 | 0.368 | 0.297 | 0.354 | 0.328 | 0.78 | 0.784 | 0.685 | 0.752 | 0.497 |
| NCI-H2228 | 1.03 | 1.02 | 1.37 | 0.961 | 1.34 | 0.795 | 0.728 | 0.738 | 0.723 | 0.728 | 0.213 | 0.152 | 0.111 | 0.184 | 0.155 | 0.255 | 0.374 | 0.436 | 0.417 | 0.405 |
| PC-14 | 0.373 | 0.413 | 0.32 | 0.32 | 0.359 | 0.515 | 0.511 | 0.484 | 0.573 | 0.441 | 0.148 | 0.154 | 0.177 | 0.243 | 0.198 | 0.53 | 0.611 | 0.642 | 0.434 | 0.662 |
| NCI-H1437 | 0.925 | 0.981 | 0.738 | 0.795 | 0.922 | 0.346 | 0.313 | 0.284 | 0.316 | 0.294 | 1.08 | 1.04 | 1.06 | 1.06 | 1.1 | 0.334 | 0.288 | 0.336 | 0.322 | 0.274 |
| NCI-H460 | 0.959 | 1.34 | 0.996 | 1.08 | 1.28 | 0.23 | 0.231 | 0.194 | 0.233 | 0.12 | 0.0343 | 0.0424 | 0.0346 | 0.0408 | 0.0379 | 0.547 | 0.527 | 0.502 | 0.488 | 0.531 |
| NCI-H1666 | 0.72 | 0.584 | 0.734 | 0.786 | 0.669 | 0.678 | 0.674 | 0.607 | 0.682 | 0.645 | 0.984 | 0.979 | 1.04 | 1.04 | 1 | 0.573 | 0.578 | 0.594 | 0.538 | 0.54 |
| NCI-H1651 | 0.922 | 0.971 | 0.771 | 0.766 | 0.833 | 0.499 | 0.505 | 0.523 | 0.527 | 0.545 | 0.861 | 0.6 | 0.67 | 0.797 | 0.716 | 0.338 | 0.292 | 0.362 | 0.344 | 0.296 |
| NCI-H1755 | 1.04 | 0.919 | 1.02 | 1.04 | 1.07 | 0.463 | 0.412 | 0.438 | 0.466 | 0.401 | 0.535 | 0.365 | 0.454 | 0.412 | 0.715 | 0.605 | 0.614 | 0.65 | 0.639 | 0.649 |
| NCI-H661 | 0.523 | 0.649 | 0.464 | 0.623 | 0.493 | 0.433 | 0.407 | 0.392 | 0.41 | 0.384 | 0.905 | 0.907 | 0.963 | 0.882 | 0.914 | 0.305 | 0.275 | 0.307 | 0.28 | 0.266 |
| HARA | 0.664 | 0.81 | 0.637 | 0.671 | 0.696 | 0.222 | 0.298 | 0.268 | 0.311 | 0.234 | 0.783 | 0.761 | 0.637 | – | 0.617 | 0.522 | 0.461 | 0.435 | – | 0.386 |
| NCI-H23 | 1.21 | 1.26 | 0.931 | 1.27 | 1.28 | 0.55 | 0.494 | 0.43 | 0.525 | 0.538 | 0.207 | 0.224 | 0.201 | 0.202 | 0.227 | 0.824 | 0.746 | 0.788 | 0.756 | 0.705 |
| LCLC-97TM1 | 0.721 | 0.776 | 0.896 | 0.972 | 1.13 | 0.192 | 0.22 | 0.213 | – | 0.27 | 0.842 | 0.734 | 0.682 | 0.738 | 0.604 | 0.388 | 0.453 | 0.465 | 0.407 | 0.346 |
| EPLC-272H | 1.08 | 0.736 | 0.907 | 1.19 | 0.937 | 0.294 | 0.347 | 0.353 | – | 0.316 | 0.262 | 0.265 | 0.605 | 0.351 | 0.428 | 0.33 | 0.275 | 0.314 | 0.294 | 0.296 |
| NCI-H1915 | 0.98 | 1.02 | 0.953 | 0.967 | 1.06 | 0.51 | 0.527 | 0.506 | 0.556 | 0.529 | 0.787 | 0.715 | 0.755 | 0.815 | 0.747 | 0.364 | 0.37 | 0.382 | 0.369 | 0.341 |
| NCI-H2405 | 1.26 | 1.1 | – | 1.18 | 1.12 | 0.538 | 0.512 | 0.525 | 0.561 | 0.525 | 0.755 | 0.63 | 0.614 | 0.706 | 0.64 | 0.419 | 0.394 | 0.41 | 0.384 | 0.363 |
| NCI-H322M | 0.626 | 0.605 | 0.601 | 0.55 | 0.524 | 0.523 | 0.48 | 0.493 | 0.493 | 0.49 | 0.921 | 0.784 | 0.826 | 0.833 | 0.942 | 0.761 | 0.798 | 0.772 | 0.749 | 0.743 |
| NCI-H2170 | 0.282 | 0.279 | 0.276 | 0.273 | 0.306 | 0.382 | 0.377 | 0.425 | 0.385 | 0.379 | 0.678 | 0.799 | 0.684 | 0.687 | 0.72 | 0.393 | 0.415 | 0.403 | 0.425 | 0.412 |
| NCI-H1395 | 0.941 | 0.948 | 0.776 | 0.839 | 0.949 | 0.626 | 0.605 | 0.612 | 0.601 | 0.598 | 0.757 | 0.655 | 0.744 | 0.763 | 0.714 | 0.45 | 0.477 | 0.498 | 0.396 | 0.44 |
| NCI-H358 | 0.58 | 0.425 | 0.478 | 0.514 | 0.434 | 0.134 | 0.131 | 0.146 | 0.148 | 0.123 | 0.526 | 0.388 | 0.283 | 0.26 | 0.242 | 0.366 | 0.33 | 0.337 | 0.388 | 0.328 |
| NCI-H838 | 1.03 | 1.06 | 0.907 | 0.778 | 0.96 | 0.24 | 0.223 | 0.229 | 0.22 | 0.211 | 0.319 | 0.3 | 0.266 | 0.331 | 0.24 | 0.729 | 0.599 | 0.502 | 0.659 | 0.543 |
| CAL-12T | 0.822 | 0.82 | – | 0.837 | 0.766 | 0.524 | 0.575 | 0.414 | 0.525 | 0.408 | 0.498 | 0.314 | 0.36 | 0.188 | 0.363 | 0.546 | 0.618 | 0.556 | 0.589 | 0.498 |
